These compounds were tested against human serotonin reuptake transporter (Homo sapiens, UniProt P31645) (assay: cell-based). Conditions: Human IC50 (nM) hSERT.
Chain of human serotonin reuptake transporter (P31645 whole entry): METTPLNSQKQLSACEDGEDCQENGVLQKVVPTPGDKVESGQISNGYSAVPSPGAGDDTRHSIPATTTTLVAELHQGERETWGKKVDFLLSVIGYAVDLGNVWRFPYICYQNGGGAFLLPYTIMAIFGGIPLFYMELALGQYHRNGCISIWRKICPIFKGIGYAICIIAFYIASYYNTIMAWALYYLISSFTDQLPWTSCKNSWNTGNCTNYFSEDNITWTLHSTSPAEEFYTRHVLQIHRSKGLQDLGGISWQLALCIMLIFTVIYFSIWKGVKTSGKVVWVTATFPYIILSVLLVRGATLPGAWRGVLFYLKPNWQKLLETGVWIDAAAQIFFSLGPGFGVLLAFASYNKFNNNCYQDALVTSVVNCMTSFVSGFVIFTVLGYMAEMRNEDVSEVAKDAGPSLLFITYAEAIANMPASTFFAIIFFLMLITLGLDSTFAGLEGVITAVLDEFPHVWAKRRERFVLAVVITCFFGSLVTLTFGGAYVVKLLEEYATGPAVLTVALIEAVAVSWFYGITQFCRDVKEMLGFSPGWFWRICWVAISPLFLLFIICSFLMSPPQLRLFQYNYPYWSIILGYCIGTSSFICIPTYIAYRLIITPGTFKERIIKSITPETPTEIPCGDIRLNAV

Q: For `CN(C)CC1(c2ccc(Cl)c(Cl)c2)CC=CCC1` (stereo not shown) [Compound 72, 1-(1-(3,4-dichlorophenyl)cyclohex-3-enyl)-N,N-dimethylmethanamine], which IC50 is on record?
A: The IC50 was 136 nM.

Q: `CNCC1(c2ccc(Cl)c(Cl)c2)CCCC1` [Compound 88, (1-(3,4-dichlorophenyl)cyclopentyl)-N-methylmethanamine] was tested. Which IC50 did it give?
A: The IC50 was 829 nM.

Same assay, conditions: Human IC50 (nM) hSERT, recombinant human serotonin transporter (SERT)

Q: For `CNCC1(c2ccc(Cl)cc2Cl)CCCCC1` [Compound 65, 1-(1-(2,4-dichlorophenyl)cyclohexyl)-N-methylmethanamine], which IC50 is on record?
A: The IC50 was 1620 nM.

Q: With `CN(C)CC1(c2ccc(Cl)cc2Cl)CCCCC1` [Compound 66, 1-(1-(2,4-dichlorophenyl)cyclohexyl)-N,N-dimethylmethanamine] as the compound, how does the IC50 read?
A: Its IC50 is 221 nM.

Q: How did the IC50 turn out when `CNCC1(c2ccc3cc(F)ccc3c2)CCCCC1` [Compound 67, 1-(1-(6-fluoronaphthalen-2-yl)cyclohexyl)-N-methylmethanamine] was run?
A: The IC50 was 230 nM.

Q: Which IC50 does the source give for `NCC1(c2ccc(Cl)c(Cl)c2)CCCC1` [Compound 87, (1-(3,4-dichlorophenyl)cyclopentyl)methanamine] here?
A: The IC50 was 1470 nM.

Q: With `CNCC1(c2ccc(F)cc2)CCCCC1` [Compound 90, 1-(1-(4-fluorophenyl)cyclohexyl)-N-methylmethanamine] as the compound, how does the IC50 read?
A: The IC50 was 839 nM.

Q: Which IC50 does the source give for `NCC1(c2ccc(F)cc2)CCCCC1` [Compound 91, (1-(4-fluorophenyl)cyclohexyl)methaneamine] here?
A: The IC50 was > 10000 nM.

Q: Which IC50 does the source give for `CNCC1(c2ccc(Cl)c(F)c2)CCCCC1` [Compound 95, (1-(4-chloro-3-fluorophenyl)cyclohexyl)-N-methylmethanamine] here?
A: The IC50 was 480 nM.

Q: With `NCC1(c2ccc(Cl)c(F)c2)CCCCC1` [Compound 98, (1-(4-chloro-3-fluorophenyl)cyclohexyl)-methanamine] as the compound, how does the IC50 read?
A: The IC50 was > 10000 nM.

Q: `CNCC1(c2ccc(C(F)(F)F)cc2)CCCCC1` [Compound 100, N-methyl-1-(1-(4-(trifluoromethyl)phenyl)-cyclohexyl)methanamine] was tested. Which IC50 did it give?
A: Its IC50 is 1500 nM.

Q: For `CN(C)CC1(c2ccc3c(c2)OCO3)CCCCC1` [Compound 102, 1-(1-(benzo[d][1,3]dioxol-5-yl)cyclohexyl)-N,N-dimethylmethanamine], which IC50 is on record?
A: Its IC50 is 195 nM.

Q: With `CNCC1(c2ccc3c(c2)OCO3)CCCCC1` [Compound 103, 1-(1-(benzo[d][1,3]dioxol-5-yl)cyclohexyl)-N-methylmethanamine] as the compound, how does the IC50 read?
A: Its IC50 is 3540 nM.

Q: `CNCC1(c2ccc(Cl)c(Cl)c2)CC=CC1` [Compound 168, 1-(1-(3,4-dichlorophenyl)cyclopent-3-enyl)-N-methylmethanamine] was tested. Which IC50 did it give?
A: Its IC50 is 1470 nM.

Q: `NCC1(c2ccc(Cl)c(Cl)c2)CCCC(F)(F)C1` (stereo not shown) [Compound 204, (1-(3,4-dichlorophenyl)-3,3-difluorocyclohexyl)-methanamine] was tested. Which IC50 did it give?
A: The IC50 was 2250 nM.

Same assay, conditions: recombinant human serotonin transporter (SERT); read-out: Human IC50 (nM) hSERT

Q: With `CN(C)CC1(c2ccc3cc(F)ccc3c2)CCCCC1` [Compound 68, 1-(1-(6-fluoronaphthalen-2-yl)cyclohexyl)-N,N-dimethylmethanamine] as the compound, how does the IC50 read?
A: Its IC50 is 19 nM.

Q: With `CNCC1(c2ccc(F)c3ccccc23)CCCCC1` [Compound 69, 1-(1-(4-fluoronaphthalen-1-yl)cyclohexyl)-N-methylmethanamine] as the compound, how does the IC50 read?
A: The IC50 was 930 nM.

Q: With `CN(C)CC1(c2ccc(F)c3ccccc23)CCCCC1` [Compound 70, 1-(1-(4-fluoronaphthalen-1-yl)cyclohexyl)-N,N-dimethylmethanamine] as the compound, how does the IC50 read?
A: The IC50 was 29 nM.

Q: With `NCC1(c2ccc3ccccc3c2)CCC(O)CC1` (stereo not shown) [Compound 207, 4-(aminomethyl)-4-(naphthalen-2-yl)cyclohexanol] as the compound, how does the IC50 read?
A: Its IC50 is 142 nM.

Q: How did the IC50 turn out when `NCC1(c2ccc3ccccc3c2)CCC(O)CC1` (stereo not shown) [Compound 208, 4-(aminomethyl)-4-(naphthalen-2-yl)cyclohexanol] was run?
A: Its IC50 is 1990 nM.

What follows are compounds tested against T1, human dopamine reuptake transporter (Homo sapiens, UniProt Q01959) (assay: cell-based). Conditions: recombinant human dopamine transporter (DAT); read-out: Human IC50 (nM) hDAT.
T1 construct: expressed in transfected cells; host or cells: CHO-K1 or HEK293
T1 sequence (Q01959 whole entry): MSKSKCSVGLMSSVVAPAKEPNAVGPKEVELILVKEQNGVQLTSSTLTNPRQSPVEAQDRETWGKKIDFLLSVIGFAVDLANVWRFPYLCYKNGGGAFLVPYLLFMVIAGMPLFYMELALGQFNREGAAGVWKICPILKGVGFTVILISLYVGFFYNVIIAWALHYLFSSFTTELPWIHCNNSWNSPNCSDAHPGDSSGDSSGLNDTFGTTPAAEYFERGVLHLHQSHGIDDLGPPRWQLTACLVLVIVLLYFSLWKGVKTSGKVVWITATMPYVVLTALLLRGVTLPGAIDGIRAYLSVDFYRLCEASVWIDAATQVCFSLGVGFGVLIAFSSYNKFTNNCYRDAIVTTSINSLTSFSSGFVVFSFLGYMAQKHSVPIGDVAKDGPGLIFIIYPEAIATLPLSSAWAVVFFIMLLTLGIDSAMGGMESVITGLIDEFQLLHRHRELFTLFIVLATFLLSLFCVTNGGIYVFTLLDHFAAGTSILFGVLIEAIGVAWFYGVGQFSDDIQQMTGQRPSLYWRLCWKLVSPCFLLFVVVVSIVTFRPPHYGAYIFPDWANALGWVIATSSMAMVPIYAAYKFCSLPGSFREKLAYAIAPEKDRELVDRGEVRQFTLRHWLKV

Q: `CNCC1(c2ccc(Cl)cc2Cl)CCCCC1` [Compound 65, 1-(1-(2,4-dichlorophenyl)cyclohexyl)-N-methylmethanamine] was tested. Which IC50 did it give?
A: The IC50 was 1940 nM.

Q: `CN(C)CC1(c2ccc(Cl)cc2Cl)CCCCC1` [Compound 66, 1-(1-(2,4-dichlorophenyl)cyclohexyl)-N,N-dimethylmethanamine] was tested. Which IC50 did it give?
A: Its IC50 is 355 nM.

Q: With `CNCC1(c2ccc3cc(F)ccc3c2)CCCCC1` [Compound 67, 1-(1-(6-fluoronaphthalen-2-yl)cyclohexyl)-N-methylmethanamine] as the compound, how does the IC50 read?
A: The IC50 was 1760 nM.

Q: Which IC50 does the source give for `CN(C)CC1(c2ccc3cc(F)ccc3c2)CCCCC1` [Compound 68, 1-(1-(6-fluoronaphthalen-2-yl)cyclohexyl)-N,N-dimethylmethanamine] here?
A: The IC50 was 343 nM.

Q: For `CNCC1(c2ccc(F)c3ccccc23)CCCCC1` [Compound 69, 1-(1-(4-fluoronaphthalen-1-yl)cyclohexyl)-N-methylmethanamine], which IC50 is on record?
A: The IC50 was 605 nM.

Q: With `CN(C)CC1(c2ccc(F)c3ccccc23)CCCCC1` [Compound 70, 1-(1-(4-fluoronaphthalen-1-yl)cyclohexyl)-N,N-dimethylmethanamine] as the compound, how does the IC50 read?
A: Its IC50 is 214 nM.

Q: With `CN(C)CC1(c2ccc(Cl)c(Cl)c2)CC=CCC1` (stereo not shown) [Compound 72, 1-(1-(3,4-dichlorophenyl)cyclohex-3-enyl)-N,N-dimethylmethanamine] as the compound, how does the IC50 read?
A: The IC50 was 1.7 nM.

Q: How did the IC50 turn out when `NCC1(c2ccc(Cl)c(Cl)c2)CCCC1` [Compound 87, (1-(3,4-dichlorophenyl)cyclopentyl)methanamine] was run?
A: Its IC50 is 139 nM.

Q: Which IC50 does the source give for `CNCC1(c2ccc(Cl)c(Cl)c2)CCCC1` [Compound 88, (1-(3,4-dichlorophenyl)cyclopentyl)-N-methylmethanamine] here?
A: Its IC50 is 93 nM.

Q: For `CNCC1(c2ccc(F)cc2)CCCCC1` [Compound 90, 1-(1-(4-fluorophenyl)cyclohexyl)-N-methylmethanamine], which IC50 is on record?
A: The IC50 was 3360 nM.

Q: How did the IC50 turn out when `NCC1(c2ccc(F)cc2)CCCCC1` [Compound 91, (1-(4-fluorophenyl)cyclohexyl)methaneamine] was run?
A: Its IC50 is 1830 nM.

Q: For `CNCC1(c2ccc(Cl)c(F)c2)CCCCC1` [Compound 95, (1-(4-chloro-3-fluorophenyl)cyclohexyl)-N-methylmethanamine], which IC50 is on record?
A: The IC50 was 324 nM.

Q: With `NCC1(c2ccc(Cl)c(F)c2)CCCCC1` [Compound 98, (1-(4-chloro-3-fluorophenyl)cyclohexyl)-methanamine] as the compound, how does the IC50 read?
A: The IC50 was 419 nM.

Q: With `CNCC1(c2ccc(C(F)(F)F)cc2)CCCCC1` [Compound 100, N-methyl-1-(1-(4-(trifluoromethyl)phenyl)-cyclohexyl)methanamine] as the compound, how does the IC50 read?
A: Its IC50 is 3410 nM.

Q: How did the IC50 turn out when `CN(C)CC1(c2ccc3c(c2)OCO3)CCCCC1` [Compound 102, 1-(1-(benzo[d][1,3]dioxol-5-yl)cyclohexyl)-N,N-dimethylmethanamine] was run?
A: Its IC50 is 420 nM.

Q: With `CNCC1(c2ccc3c(c2)OCO3)CCCCC1` [Compound 103, 1-(1-(benzo[d][1,3]dioxol-5-yl)cyclohexyl)-N-methylmethanamine] as the compound, how does the IC50 read?
A: Its IC50 is 7740 nM.

Q: Which IC50 does the source give for `CNCC1(c2ccc(Cl)c(Cl)c2)CC=CC1` [Compound 168, 1-(1-(3,4-dichlorophenyl)cyclopent-3-enyl)-N-methylmethanamine] here?
A: The IC50 was 108 nM.

Q: `NCC1(c2ccc(Cl)c(Cl)c2)CCCC(F)(F)C1` (stereo not shown) [Compound 204, (1-(3,4-dichlorophenyl)-3,3-difluorocyclohexyl)-methanamine] was tested. Which IC50 did it give?
A: The IC50 was 296 nM.

Q: For `NCC1(c2ccc3ccccc3c2)CCC(O)CC1` (stereo not shown) [Compound 207, 4-(aminomethyl)-4-(naphthalen-2-yl)cyclohexanol], which IC50 is on record?
A: Its IC50 is 1020 nM.

Q: `NCC1(c2ccc3ccccc3c2)CCC(O)CC1` (stereo not shown) [Compound 208, 4-(aminomethyl)-4-(naphthalen-2-yl)cyclohexanol] was tested. Which IC50 did it give?
A: Its IC50 is 7670 nM.
